We go through ten molecules from patent publication US7803765B2, “Methods of constructing biodiverse gene fragment libraries and biological modulators isolated therefrom” (Phylogica Limited, priority 2004, dated 2010).

One assay concerns the target T1, Id1/E47 interaction (Homo sapiens, UniProt P15923+P41134).
T1 construct: expressed in transfected cells; host or cells: Saccharomyces cerevisiae strain PRT480
T1 sequence (P41134 1-155): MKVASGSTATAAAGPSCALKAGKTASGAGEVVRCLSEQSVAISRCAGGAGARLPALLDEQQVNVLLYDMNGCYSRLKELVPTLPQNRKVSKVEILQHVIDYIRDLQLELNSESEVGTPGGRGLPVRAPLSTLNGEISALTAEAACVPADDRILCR
T1 sequence (P15923 1-651 isoform P15923-2): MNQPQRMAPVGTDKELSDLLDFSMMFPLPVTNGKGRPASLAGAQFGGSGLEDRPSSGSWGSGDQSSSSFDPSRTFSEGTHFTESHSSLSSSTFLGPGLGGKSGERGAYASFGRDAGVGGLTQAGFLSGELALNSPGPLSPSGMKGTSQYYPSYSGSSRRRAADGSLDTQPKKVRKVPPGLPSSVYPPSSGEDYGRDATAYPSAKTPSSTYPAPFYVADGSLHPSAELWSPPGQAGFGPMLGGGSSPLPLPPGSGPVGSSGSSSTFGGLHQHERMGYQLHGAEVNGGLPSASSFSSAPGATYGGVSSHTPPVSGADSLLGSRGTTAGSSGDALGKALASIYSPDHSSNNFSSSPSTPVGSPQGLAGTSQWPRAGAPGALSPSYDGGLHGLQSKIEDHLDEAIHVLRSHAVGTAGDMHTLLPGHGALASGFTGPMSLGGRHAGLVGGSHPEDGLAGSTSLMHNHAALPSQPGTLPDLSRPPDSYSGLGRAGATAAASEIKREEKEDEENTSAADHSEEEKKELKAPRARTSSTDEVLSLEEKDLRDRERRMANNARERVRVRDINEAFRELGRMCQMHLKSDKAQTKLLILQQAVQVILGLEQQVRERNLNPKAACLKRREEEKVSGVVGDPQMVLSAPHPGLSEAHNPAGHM
Nature of the assay: specificity of blocking: two-hybrid in strain PRT480 expressing ID and E47. The assay is classed as cell-based. Particulars: yeast strain PRT480, specificity control.

For a further assay, the target named is T2, SCL/E2.22F interaction (Homo sapiens, UniProt P15884+P17542).
T2 construct: expressed in transfected cells; host or cells: Saccharomyces cerevisiae strain PRT480
Nature of the assay: specificity of blocking: two-hybrid in strain PRT480 expressing E2.22F and SCL. The class given is cell-based. To be noted: yeast strain PRT480, specificity control.

The next assay relates to SCL/E47 interaction. In words: reverse two-hybrid screen for antagonists of the SCL/E47 interaction in yeast. The assay is classed as cell-based. To be noted: re-screened clones. An excerpt:
The nucleic acid encoding the E47 protein was cloned into the bait vector pDD (SEQ NO: 61; FIG. 6) in operable connection with the LexA DNA binding domain. The pDD vector also contains a nucleic acid encoding the HIS3 gene (FIG. 6).
These vectors were transformed into the PRT 480 yeast strain (which contains two LexA-CYH2 chimeric reporter genes and two LexA-URA3 counter selectable reporter genes).
The process of screening the library is represented schematically in FIG. 7. […] Approximately 300,000 diploids were plated onto 30 cm plates containing complete synthetic media lacking histidine and tryptophan (ie., HW media), and supplemented with 0.06% (w/v) galactose/0.04% 5-FOA and glucose.
The FOA-resistant colonies were replica-plated from the master-plate onto plates containing HWU media, or media lacking histidine, tryptophan and leucine (ie. HWL media). The replica-plate media also contained various concentrations of galactose.
Library plasmids were re-transformed into strain PRT51, and the resultant yeast cells were again mated with strain PRT 480 SCL/E47 haploids. Diploids were re-screened for their ability to block the SCL/E47 interaction, by plating in the forward direction on plates containing HWU or HWL media supplemented with various concentrations of galactose.

Assay [1] relates to anti-Der p 1 monoclonal antibody 2C7. Nature of the assay: T7-DELFIA binding of phage-displayed peptides to panning antibody 2C7. Particulars: 50 μl lysate in the standard T7-DELFIA; 500 ng/well 2C7.
Procedure: The monoclonal antibody (approximately 10 μg) was adsorbed to a Petri dish and the amplified phage display library brought into contact with the adsorbed antibody.
The eluate after round three was amplified and ninety-nine individual T7 clones were tested for binding to the panning antibody 2C7 using a dissociation-enhanced ianthinide fluoroimmunoassay (DELFIA) with 500 ng/well 2C7. Assays were performed essentially according to manufacturer's instructions (Perkin Elmer Life Sciences). The first ligand used in the DELFIA was T7lysate (ie the library) (1:2 in assay buffer); second ligand: SIGMA biotinylated anti-T7 monoclonal antibody 1:10,000 (mouse), Strep-Eur+enhancement solution).
The subject of another assay is monoclonal antibody 2C7. In words: competition DELFIA of 2C7pan clones binding to 2C7. Particulars: for inhibition of clone binding to 2C7 by recombinant Der p 1: competitor recombinant Der p 1. An excerpt: Competition DELIFAs were then used to study the interaction between the monoclonal antibody and the peptides identified, using recombinant Der p 1 or the epitope of the 2C7 antibody (GST-P1fragment 98-140 […]) as a competitor.

For the next assay, the system named is Der p 1. In words: immunization of mice with 2C7pan phage clones, serum tested by DELFIA and competitive DELFIA. The assay is classed as in vivo. To be noted: for anti-Der p 1 immune response in immunized mice: 10^11 phage particles in Freunds complete adjuvant, bled after first booster, DELFIA; for inhibition of immune serum binding to Der p 1 by recombinant Der p 1: competitive DELFIA, BSA as negative control. As to the method: The clones, 2C7pan clones 9, 26 and 42, described in Example 8 were then used to immunize mice. Phage were purified by CsCl gradient centrifugation and then used to immunize mice. Each injection consisted of 10^11 phage particles suspended in Freunds complete adjuvant. After the first booster mice were bled and tested by DELFIA for binding to Der p 1. Furthermore, the specificity of the immune response for Der p 1 was tested using competitive DELFIA.

Where no end group is shown, it is not given here.

T2 sequence (P17542 whole entry): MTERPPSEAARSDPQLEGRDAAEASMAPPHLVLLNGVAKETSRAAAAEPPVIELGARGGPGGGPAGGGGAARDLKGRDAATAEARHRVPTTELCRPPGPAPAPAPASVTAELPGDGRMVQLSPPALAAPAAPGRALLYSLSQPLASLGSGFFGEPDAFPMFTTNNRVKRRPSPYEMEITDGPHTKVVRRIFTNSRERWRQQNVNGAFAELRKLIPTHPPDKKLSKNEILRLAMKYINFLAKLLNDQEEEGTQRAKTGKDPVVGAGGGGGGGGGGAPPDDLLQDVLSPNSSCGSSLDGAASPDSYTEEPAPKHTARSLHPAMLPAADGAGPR
T2 sequence (P15884 whole entry): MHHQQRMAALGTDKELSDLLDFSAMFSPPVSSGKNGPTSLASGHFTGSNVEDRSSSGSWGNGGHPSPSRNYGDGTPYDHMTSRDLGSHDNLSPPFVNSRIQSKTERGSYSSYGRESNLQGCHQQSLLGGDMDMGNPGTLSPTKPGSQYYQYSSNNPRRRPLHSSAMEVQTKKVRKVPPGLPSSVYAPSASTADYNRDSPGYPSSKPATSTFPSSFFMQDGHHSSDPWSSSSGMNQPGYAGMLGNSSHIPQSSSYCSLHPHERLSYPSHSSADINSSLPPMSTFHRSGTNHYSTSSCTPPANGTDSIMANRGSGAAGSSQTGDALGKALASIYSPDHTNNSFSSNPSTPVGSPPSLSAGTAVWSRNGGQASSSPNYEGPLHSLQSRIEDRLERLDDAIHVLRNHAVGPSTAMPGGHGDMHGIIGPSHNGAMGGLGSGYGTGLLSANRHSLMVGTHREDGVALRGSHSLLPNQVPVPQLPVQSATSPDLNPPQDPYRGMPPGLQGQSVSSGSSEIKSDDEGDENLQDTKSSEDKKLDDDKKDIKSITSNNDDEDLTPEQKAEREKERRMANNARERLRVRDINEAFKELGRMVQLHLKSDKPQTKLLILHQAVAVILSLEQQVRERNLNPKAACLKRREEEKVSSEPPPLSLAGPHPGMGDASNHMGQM
Procedure for Id1/E47 interaction: (§1) Subsequently, the specificity of blocking was assayed, by mating those strains that did recapitulate the blocked phenotype into a strain PRT480 expressing two interacting proteins selected from the group consisting of: (i) E2,2 2F and SCL; and (ii) ID and E47.
Procedure for SCL/E2.22F interaction: as §1

As for “BGF 05: non-specific blocker clone; fusion peptide SEQ ID NO: 63, fragment-encoded SEQ ID NO: 65; H. influenzae fragment (MGKPIPNPLLGLDSTQAMGAPPKKKRKVAEFARTTTTRLINQSVVRKIWLYRDAR)”, the “Target interaction Id1/E47 blocked” value with Id1/E47 interaction was “+”. Besides, the “Target interaction SCL/E2.22F blocked” value with SCL/E2.22F interaction is reported as “+”. The “Target interaction SCL/E47 blocked” value with SCL/E47 interaction is on record as “+”.

With “BGF 06: SCL/E47 peptide blocker; fusion peptide SEQ ID NO: 67, fragment-encoded SEQ ID NO: 69; A. aeolicus fragment (MGKPIPNPLLGLDSTQAMGAPPKKKRKVAEFRSDYKDDDDKAYHIIAVCFLIKVS)”, the “Target interaction Id1/E47 blocked” value with Id1/E47 interaction is reported as “−”. Besides, in the assay with SCL/E2.22F interaction, the “Target interaction SCL/E2.22F blocked” value is recorded as “−”. In addition, the “Target interaction SCL/E47 blocked” value in the assay with SCL/E47 interaction is listed as “+”.

Regarding “BGF 13: SCL/E47 peptide blocker; fusion peptide SEQ ID NO: 71, fragment-encoded SEQ ID NO: 73; H. influenzae fragment (MGKPIPNPLLGLDSTQAMGAPPKKKRKVAEFGFCSNQMREM)”, in the assay with Id1/E47 interaction, the “Target interaction Id1/E47 blocked” value is “−”. Moreover, the “Target interaction SCL/E2.22F blocked” value with SCL/E2.22F interaction is listed as “−”. In addition, in the assay with SCL/E47 interaction, the “Target interaction SCL/E47 blocked” value is reported as “+”.

Consider “BGF 24: SCL/E47 peptide blocker; fusion peptide SEQ ID NO: 75, fragment-encoded SEQ ID NO: 77; T. maritima fragment (MGKPIPNPLLGLDSTQAMGAPPKKKRKVAEFRSDYKDDDDKLIKHHWVLSIITTASR)”, for which the “Target interaction Id1/E47 blocked” value with Id1/E47 interaction is on record as “−”. Besides, the “Target interaction SCL/E2.22F blocked” value with SCL/E2.22F interaction is reported as “−”. The “Target interaction SCL/E47 blocked” value in the assay with SCL/E47 interaction was “+”.

Regarding “GDP R T H R (GDPRTHR; numbers in words are those of the source; also: displayed on T7 phage) [Clone 2c7pan26]”, in assay [1], the “TRF (time resolved fluorometry) binding to 2C7” value (shortened to “TRF”) amounted to 8500 TRF. Besides, in the assay on monoclonal antibody 2C7, the “inhibition of clone binding to 2C7 by recombinant Der p 1” value is recorded as “specifically inhibited”. Further, in the assay with Der p 1, the “anti-Der p 1 immune response in immunized mice” value (shortened to “anti-Der p 1 immune response”) is listed as “an anti-Der p 1 immune response was induced” and the “inhibition of immune serum binding to Der p 1 by recombinant Der p 1” value (from here on “inhibition … to Der p 1 by recombinant Der p 1”) was “inhibited by the addition of recombinant Der p 1”.

For “GDPN S A S G T A (GDPNSASGTA; numbers in words are those of the source; also: displayed on T7 phage) [Clone 2c7pan9]”, in assay [1], the “TRF” value turned out to be 17000 TRF. For the same molecule, the “inhibition of clone binding to 2C7 by recombinant Der p 1” value with monoclonal antibody 2C7 is “specifically inhibited”. For the same molecule, in the assay with Der p 1, the “anti-Der p 1 immune response” value is on record as “an anti-Der p 1 immune response was induced” and the “inhibition … to Der p 1 by recombinant Der p 1” value is “inhibited by the addition of recombinant Der p 1”.

“GDPN S R G K S R E Y L S (GDPNSRGKSREYLS; numbers in words are those of the source; also: displayed on T7 phage) [Clone 2c7pan14]”: the “TRF” value in assay [1] is listed as 1800 TRF. Further, in the assay with monoclonal antibody 2C7, the “inhibition of clone binding to 2C7 by recombinant Der p 1” value is on record as “specifically inhibited”.

For the molecule “GDPN S S S V D K L G Y W R V T E S S N E (GDPNSSSVDKLGYWRVTESSNE; numbers in words are those of the source; also: displayed on T7 phage) [Clone 2c7pan42]”, the “TRF” value in assay [1] was found to be 64000 TRF. For the same molecule, in the assay with monoclonal antibody 2C7 (competitor GST-P1fragment 98-140 (2C7 epitope)), the “inhibition of clone binding to 2C7 by GST-P1fragment 98-140” value is “higher levels of inhibition”. The “inhibition of clone binding to 2C7 by recombinant Der p 1” value with monoclonal antibody 2C7 is given as “only partially inhibited”. Also, in the assay on Der p 1, the “anti-Der p 1 immune response” value was “an anti-Der p 1 immune response was induced” and the “inhibition … to Der p 1 by recombinant Der p 1” value was “inhibited by the addition of recombinant Der p 1”.

For the molecule “GDPN S S T S P R (GDPNSSTSPR; numbers in words are those of the source; also: displayed on T7 phage) [Clone 2c7pan8]”, the “TRF” value in assay [1] came to 1900 TRF. In addition, the “inhibition of clone binding to 2C7 by recombinant Der p 1” value in the assay with monoclonal antibody 2C7 is listed as “specifically inhibited”.

B1: BGF 35: SCL/E47 peptide blocker; fusion peptide SEQ ID NO: 79, fragment-encoded SEQ ID NO: 81; H. influenzae fragment (peptide)
chain: MGKPIPNPLLGLDSTQAMGAPPKKKRKVAEFQGRRRQGLSINQWLEKYGYIEMQGNETFKLAVRELSNVVEETLLANNLDKKDLDWLVVVVLVV
In the case of B1, the “Target interaction Id1/E47 blocked” value with Id1/E47 interaction was “−”. The “Target interaction SCL/E2.22F blocked” value in the assay with SCL/E2.22F interaction is listed as “−”. Also, the “Target interaction SCL/E47 blocked” value in the assay on SCL/E47 interaction is listed as “+”.
